Molecules are shown by their SMILES.

In this data set the test system is common cutworm (Spodoptera litura). As to the kind of experiment: Insecticidal effect on common cutworm (Test Example 2). The class given is in vivo. The settings on record: 50 ppm; cabbage leaf immersed about 30 seconds; second-instar larvae; eight days after the inoculation; 25° C. The source says: Insecticidal effect on common cutworm (Spodoptera litura)
A piece of cabbage leaf (cultivar: Shikidori) was immersed for about 30 seconds in a liquid chemical prepared by diluting a preparation containing each compound listed in Table 1 or Table 2, as an active ingredient to adjust the concentration to 50 ppm. After air-drying, the piece was placed in a plastic Petri dish with a diameter of 9 cm and inoculated with second-instar larvae of common cutworm, after which the dish was closed and then allowed to stand in a room thermostated at 25° C. Eight days after the inoculation, the dead and alive were counted and the mortality was calculated according to the following equation, whereby the insecticidal effect was judged according to the criterion shown in Test Example 1. The test was carried out with three replications of 10 insects.

In the case of `Cc1cc(OC(F)(F)F)ccc1NC(=O)c1cccc(I)c1C(=O)NC(C)COC(=O)NC1CC1` (stereo not shown) [compound 134], the “insecticidal activity (mortality rating)” value is “B or higher”.

For `CCCNC(=O)OCC(C)(C)NC(=O)c1c(I)cccc1C(=O)Nc1ccc(C(F)(C(F)(F)F)C(F)(F)F)cc1C` [compound 129], the “insecticidal activity (mortality rating)” value was “B or higher”.

In the case of `COC(=O)NCC(C)NC(=O)c1c(I)cccc1C(=O)Nc1ccc(C(F)(C(F)(F)F)C(F)(F)F)cc1C` (stereo not shown) [compound 22], the “insecticidal activity (mortality rating)” value is “B or higher”.

As for `CNC(=O)OCC(C)(C)NC(=O)c1c(I)cccc1C(=O)Nc1ccc(C(F)(C(F)(F)F)C(F)(F)F)nc1C` [2-35], the “insecticidal activity (mortality rating)” value is recorded as “B or higher”.

With `CCNC(=O)OCC(C)NC(=O)c1c(I)cccc1C(=O)Nc1ccc(C(F)(F)C(F)(F)C(F)(F)F)cc1C` (stereo not shown) [compound 272], the “insecticidal activity (mortality rating)” value was “B or higher”.

For the compound `Cc1cc(C(F)(C(F)(F)F)C(F)(F)F)ccc1NC(=O)c1cccc(I)c1C(=O)NC(C)CCOCC(C)C` (stereo not shown) [compound 74], the “insecticidal activity (mortality rating)” value was “B or higher”.

On to `Cc1cc(C(F)(C(F)(F)F)C(F)(F)F)ccc1NC(=O)c1cccc(I)c1C(=O)NC(C)COC(=O)N(C)C` (stereo not shown) [compound 88], for which the “insecticidal activity (mortality rating)” value is listed as “B or higher”.

With `Cc1cc(C(F)(C(F)(F)F)C(F)(F)F)ccc1NC(=O)c1cccc(I)c1C(=O)NC(C)COC(=O)NC1CC1` (stereo not shown) [compound 133], the “insecticidal activity (mortality rating)” value is “B or higher”.

Consider `Cc1cc(C(F)(C(F)(F)F)C(F)(F)F)ccc1NC(=O)c1ccc(Cl)c(Cl)c1C(=O)NC(C)COC(=O)NCc1ccccc1` (stereo not shown) [compound 229], for which the “insecticidal activity (mortality rating)” value is reported as “B or higher”.

For the compound `CCN(CC)C(=O)OCC(C)NC(=O)c1c(I)cccc1C(=O)Nc1ccc(C(F)(C(F)(F)F)C(F)(F)F)nc1C` (racemic) [2-32], the “insecticidal activity (mortality rating)” value is given as “B or higher”.

Consider `CCCNC(=O)OCC(C)(C)NC(=O)c1c(I)cccc1C(=O)Nc1ccc(C(F)(C(F)(F)F)C(F)(F)F)cc1Cl` [compound 130], for which the “insecticidal activity (mortality rating)” value is listed as “B or higher”.

`COCCC(C)NC(=O)c1c(I)cccc1C(=O)Nc1ccc(C(F)(C(F)(F)F)C(F)(F)F)cc1C` (stereo not shown) [compound 59]: the “insecticidal activity (mortality rating)” value is on record as “B or higher”.

Turning to `COCCNC(=O)OCC(C)(C)NC(=O)c1c(I)cccc1C(=O)Nc1ccc(C(F)(C(F)(F)F)C(F)(F)F)cc1C` [compound 172], the “insecticidal activity (mortality rating)” value is reported as “B or higher”.

As to `CCNC(=O)OCC(C)NC(=O)c1c(I)cccc1C(=O)Nc1ccc(C(F)(C(F)(F)F)C(F)(F)F)nc1Cl` (racemic) [2-39], the “insecticidal activity (mortality rating)” value is recorded as “B or higher”.

On to `COc1ccc(CNC(=O)OCC(C)NC(=O)c2c(I)cccc2C(=O)Nc2ccc(OC(C(F)(F)F)C(F)(F)F)nc2C)cc1` (racemic) [2-72], for which the “insecticidal activity (mortality rating)” value is recorded as “B or higher”.

Regarding `CCNC(=O)OCC(C)NC(=O)c1c(I)cccc1C(=O)Nc1ccc(OC(C(F)(F)F)C(F)(F)F)nc1C` (racemic) [2-47], the “insecticidal activity (mortality rating)” value is “B or higher”.

Take `Cc1cc(C(F)(C(F)(F)F)C(F)(F)F)ccc1NC(=O)c1cccc(I)c1C(=O)NC(C)(C)CNC(=O)C1CC1` [compound 29]: the “insecticidal activity (mortality rating)” value is given as “B or higher”.

For `CSCCCNC(=O)OCC(C)(C)NC(=O)c1c(I)cccc1C(=O)Nc1ccc(C(F)(C(F)(F)F)C(F)(F)F)cc1C` [compound 184], the “insecticidal activity (mortality rating)” value is reported as “B or higher”.

For the compound `CC(=O)NCC(C)(C)NC(=O)c1c(I)cccc1C(=O)Nc1ccc(C(F)(C(F)(F)F)C(F)(F)F)cc1C` [compound 28], the “insecticidal activity (mortality rating)” value is “B or higher”.

Regarding `Cc1cc(C(F)(C(F)(F)F)C(F)(F)F)ccc1NC(=O)c1cccc(I)c1C(=O)NCC1COC(C)(C)O1` (stereo not shown) [compound 51], the “insecticidal activity (mortality rating)” value is “B or higher”.

For the compound `CCOC(=O)NCC(C)(C)NC(=O)c1c(I)cccc1C(=O)Nc1ccc(C(F)(F)C(F)(F)F)cc1C` [compound 19], the “insecticidal activity (mortality rating)” value is given as “B or higher”.

Consider `CCNC(=O)OCC(C)NC(=O)c1c(I)cccc1C(=O)Nc1ccc(C(OCC)(C(F)(F)F)C(F)(F)F)cc1C` (stereo not shown) [compound 279], for which the “insecticidal activity (mortality rating)” value is listed as “B or higher”.

For the origin of these results see US7256192B2, “Aromatic diamide derivatives, chemicals for agricultural or horticultural use and usage thereof” (Nihon Nohyaku Co., Ltd., priority 1999, dated 2007).
